According to ChEMBL document CHEMBL1909569 (Bioorg Med Chem Lett, 2011):
pEC50, pIC50: −log10 of the molar value. In brackets after ≈: the same amount, converted by molar mass.

Assays:
[1] = tested on: Mycobacterium tuberculosis; assay: Antimicrobial activity against replicating Mycobacterium tuberculosis after 8 days by micro plate alamar blue assay; format: functional; conditions: 192 h
Escherichia coli [2] = assay: Antimicrobial activity against wild type Escherichia coli DH5[alpha] after 16 to 20 hrs; format: functional
[3] = target: T1, DNA-directed RNA polymerase subunit beta (Mycobacterium tuberculosis) (UniProt P9WGY9); assay: (§1) Inhibition of wild type Mycobacterium tuberculosis RNA polymerase after 10 mins using ribo green staining by rolling circle transcription assay; set-up: unit not given here
T1 sequence (whole entry): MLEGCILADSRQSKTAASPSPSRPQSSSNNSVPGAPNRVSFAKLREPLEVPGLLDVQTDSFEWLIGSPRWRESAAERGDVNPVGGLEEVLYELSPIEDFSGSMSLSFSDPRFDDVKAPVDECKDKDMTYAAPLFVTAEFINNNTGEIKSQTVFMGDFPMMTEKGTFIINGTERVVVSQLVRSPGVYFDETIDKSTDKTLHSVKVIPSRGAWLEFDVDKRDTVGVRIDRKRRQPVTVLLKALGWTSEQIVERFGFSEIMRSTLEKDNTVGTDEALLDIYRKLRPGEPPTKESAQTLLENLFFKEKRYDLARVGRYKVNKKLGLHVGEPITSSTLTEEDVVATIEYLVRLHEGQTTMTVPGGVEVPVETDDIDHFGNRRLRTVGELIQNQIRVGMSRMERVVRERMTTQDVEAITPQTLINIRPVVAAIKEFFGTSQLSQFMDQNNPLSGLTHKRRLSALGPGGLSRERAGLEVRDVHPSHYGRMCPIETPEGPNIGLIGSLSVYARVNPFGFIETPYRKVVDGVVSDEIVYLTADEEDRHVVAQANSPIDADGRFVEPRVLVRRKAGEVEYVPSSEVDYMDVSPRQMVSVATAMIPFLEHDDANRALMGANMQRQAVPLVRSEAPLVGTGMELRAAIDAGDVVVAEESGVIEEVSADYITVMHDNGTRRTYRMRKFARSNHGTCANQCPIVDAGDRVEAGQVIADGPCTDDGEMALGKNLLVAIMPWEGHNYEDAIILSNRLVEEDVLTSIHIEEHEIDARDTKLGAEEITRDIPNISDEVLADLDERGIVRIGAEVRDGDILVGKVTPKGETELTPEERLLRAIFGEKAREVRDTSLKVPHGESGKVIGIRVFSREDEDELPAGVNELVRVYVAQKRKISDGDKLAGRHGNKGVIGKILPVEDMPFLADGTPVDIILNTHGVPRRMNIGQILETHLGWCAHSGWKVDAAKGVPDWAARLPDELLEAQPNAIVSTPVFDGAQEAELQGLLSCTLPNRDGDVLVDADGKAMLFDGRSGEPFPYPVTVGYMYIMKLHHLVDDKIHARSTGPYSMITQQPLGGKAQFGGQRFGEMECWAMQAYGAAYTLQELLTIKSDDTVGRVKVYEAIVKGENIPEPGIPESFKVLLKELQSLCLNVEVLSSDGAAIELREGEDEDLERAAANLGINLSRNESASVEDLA

[4] = target: T2, DNA-directed RNA polymerase subunit beta (Mycobacterium tuberculosis, UniProt P9WGY9); assay: as §1
T2 sequence (P9WGY9 whole entry): T1 sequence (whole entry)

[5] = tested on: Mycobacterium tuberculosis; assay: Antimicrobial activity against non-replicating Mycobacterium tuberculosis after 11 days by luminescence based low oxygen recovery assay; format: functional; conditions: 264 h
Escherichia coli [6] = assay: Antimicrobial activity against wild type Escherichia coli TG2 after 16 to 20 hrs; format: functional
Escherichia coli [7] = assay: Antimicrobial activity against Escherichia coli EC2880 mutant after 16 to 20 hrs; format: functional
[8] = target: T3, Nuclear receptor subfamily 1 group I member 2 (Homo sapiens, UniProt O75469); assay: Activation of human PXR in DPX2 cells up to 100 uM after 24 hrs by microplate reader relative to control; format: ADME, cell-based
T3 sequence (O75469 whole entry): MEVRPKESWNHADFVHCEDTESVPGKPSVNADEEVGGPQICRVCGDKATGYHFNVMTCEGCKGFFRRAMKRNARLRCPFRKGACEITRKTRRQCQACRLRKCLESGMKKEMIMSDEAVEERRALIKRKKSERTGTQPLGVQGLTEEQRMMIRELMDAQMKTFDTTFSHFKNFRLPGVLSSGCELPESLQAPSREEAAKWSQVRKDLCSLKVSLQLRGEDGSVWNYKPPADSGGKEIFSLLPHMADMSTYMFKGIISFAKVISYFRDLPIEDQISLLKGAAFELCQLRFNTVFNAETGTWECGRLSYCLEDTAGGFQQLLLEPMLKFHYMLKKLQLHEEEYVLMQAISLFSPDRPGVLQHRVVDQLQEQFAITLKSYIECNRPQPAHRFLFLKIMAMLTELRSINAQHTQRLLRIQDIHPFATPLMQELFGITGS

[9] = target: T3, Nuclear receptor subfamily 1 group I member 2; assay: (§2) Activation of human PXR in DPX2 cells after 24 hrs by microplate reader relative to control; format: ADME, cell-based
[10] = target: T4, PXR (nuclear receptor subfamily 1 group I member 2) (Homo sapiens, UniProt O75469); assay: as §2; format: ADME, cell-based; conditions: human, DPX2 cells; read-out: FC
T4 sequence (O75469 whole entry): T3 sequence (O75469 whole entry)

[11] = target: T1, DNA-directed RNA polymerase subunit beta (Mycobacterium tuberculosis); assay: Ratio of compound IC50 to Rifamycin S IC50 for wild type Mycobacterium tuberculosis RNA polymerase

SMILES: CO[C@H]1/C=C/O[C@@]2(C)Oc3c(C)c(N(C)C)c4c(c3C2=O)C(=O)C=C(NC(=O)/C(C)=C\C=C\[C@H](C)[C@H](O)[C@@H](C)[C@@H](O)[C@@H](C)[C@H](OC(C)=O)[C@@H]1C)C4=O
- MIC90 [1]: 1.8 µM (≈ 1.3 µg/mL)
- MIC90 (Escherichia coli [2]): > 100 µM
- logIC50 [3]: -0.298
- pIC50 [4]: 6.30
- MIC90 [5]: 5.4 µM (≈ 3.9 µg/mL)
- MIC90 (Escherichia coli [6]): > 100 µM
- MIC90 (Escherichia coli [7]): 12.5 µM (≈ 9.04 µg/mL)

SMILES: CO[C@H]1/C=C/O[C@@]2(C)Oc3c(c4c5c(nn(C)c5c3C)C(=C(/C=N/N3CCN(C)CC3)C4=O)NC(=O)/C(C)=C\C=C\[C@H](C)[C@H](O)[C@@H](C)[C@@H](O)[C@@H](C)[C@H](OC(C)=O)[C@@H]1C)C2=O
- MIC90 [1]: > 4.8 µM
- EC50 [8]: Not Active
- MIC90 [5]: > 19.3 µM

SMILES: CO[C@H]1/C=C/O[C@@]2(C)Oc3c(C)c(NC4CCCCCC4)c4c(c3C2=O)C(=O)C=C(NC(=O)/C(C)=C\C=C\[C@H](C)[C@H](O)[C@@H](C)[C@@H](O)[C@@H](C)[C@H](OC(C)=O)[C@@H]1C)C4=O
- MIC90 [1]: 2.2 µM (≈ 1.74 µg/mL)
- MIC90 (Escherichia coli [2]): > 100 µM
- logIC50 [3]: 1.19
- pIC50 [4]: 4.81
- MIC90 [5]: > 20.2 µM
- MIC90 (Escherichia coli [6]): > 100 µM
- MIC90 (Escherichia coli [7]): > 12.5 µM

SMILES: CNc1c(C)c2c3c4c(O)c(/C=N/N5CCN(C)CC5)c(c(O)c14)NC(=O)/C(C)=C\C=C\[C@H](C)[C@H](O)[C@@H](C)[C@@H](O)[C@@H](C)[C@H](OC(C)=O)[C@H](C)[C@@H](OC)/C=C/O[C@@](C)(O2)C3=O
- MIC90 [1]: 4 µM (≈ 3.34 µg/mL)
- pEC50 [9]: 5.39
- fold induction at 24 h [10]: 8.9
- MIC90 [5]: > 19.1 µM

SMILES: CNc1c(C)c2c3c4c1C(=O)C(=C(/C=N/N1CCN(C)CC1)C4=O)NC(=O)/C(C)=C\C=C\[C@H](C)[C@H](O)[C@@H](C)[C@@H](O)[C@@H](C)[C@H](OC(C)=O)[C@H](C)[C@@H](OC)/C=C/O[C@@](C)(O2)C3=O
- MIC90 [1]: 3.64 µM (≈ 3.04 µg/mL)
- pEC50 [9]: 5.68
- fold induction at 24 h [10]: 6.9
- MIC90 [5]: > 19.2 µM

SMILES: CO[C@H]1/C=C/O[C@@]2(C)Oc3c(C)c(SC)c4c(c3C2=O)C(=O)C=C(NC(=O)/C(C)=C\C=C\[C@H](C)[C@H](O)[C@@H](C)[C@@H](O)[C@@H](C)[C@H](OC(C)=O)[C@@H]1C)C4=O
- MIC90 [1]: 2 µM (≈ 1.45 µg/mL)
- MIC90 (Escherichia coli [2]): > 100 µM
- logIC50 [3]: -1.82
- pIC50 [4]: 7.82
- MIC90 [5]: 1.3 µM (≈ 0.944 µg/mL)
- MIC90 (Escherichia coli [6]): > 100 µM
- MIC90 (Escherichia coli [7]): > 12.5 µM

SMILES: CO[C@H]1/C=C/O[C@@]2(C)Oc3c(C)c(OS(=O)(=O)c4ccc(C)cc4)c4c(c3C2=O)C(=O)C=C(NC(=O)/C(C)=C\C=C\[C@H](C)[C@H](O)[C@@H](C)[C@@H](O)[C@@H](C)[C@H](OC(C)=O)[C@@H]1C)C4=O
- MIC90 [1]: 0.2 µM (≈ 0.17 µg/mL)
- MIC90 (Escherichia coli [2]): > 100 µM
- logIC50 [3]: -1.68
- pIC50 [4]: 7.68
- MIC90 [5]: 3 µM (≈ 2.55 µg/mL)
- MIC90 (Escherichia coli [6]): > 100 µM
- Ratio IC50 [11]: 2
- MIC90 (Escherichia coli [7]): 3.12 µM (≈ 2.66 µg/mL)

SMILES: CO[C@H]1/C=C/O[C@@]2(C)Oc3c(C)c(O)c4c(c3C2=O)C(=O)C(/C=N/N2CCN(C)CC2)=C(NC(=O)/C(C)=C\C=C\[C@H](C)[C@H](O)[C@@H](C)[C@@H](O)[C@@H](C)[C@H](OC(C)=O)[C@@H]1C)C4=O [RIFAMPIN S]
- MIC90 [1]: 0.07 µM (≈ 0.0575 µg/mL)
- MIC90 (Escherichia coli [2]): 25 µM (≈ 20.5 µg/mL)
- logIC50 [3]: -1.88
- pIC50 [4]: 7.89
- MIC90 [5]: 0.5 µM (≈ 0.41 µg/mL)
- MIC90 (Escherichia coli [6]): 12.5 µM (≈ 10.3 µg/mL)
- MIC90 (Escherichia coli [7]): 0.1 µM (≈ 0.0821 µg/mL)

SMILES: CO[C@H]1/C=C/O[C@@]2(C)Oc3c(C)c(N)c4c(c3C2=O)C(=O)C=C(NC(=O)/C(C)=C\C=C\[C@H](C)[C@H](O)[C@@H](C)[C@@H](O)[C@@H](C)[C@H](OC(C)=O)[C@@H]1C)C4=O
- MIC90 [1]: 1.41 µM (≈ 0.98 µg/mL)
- MIC90 (Escherichia coli [2]): > 100 µM
- logIC50 [3]: 0.644
- pIC50 [4]: 5.36
- MIC90 [5]: 22.2 µM (≈ 15.4 µg/mL)
- MIC90 (Escherichia coli [6]): > 100 µM
- MIC90 (Escherichia coli [7]): 12.5 µM (≈ 8.68 µg/mL)

SMILES: CO[C@H]1/C=C/O[C@@]2(C)Oc3c(C)c(O)c4c(c3C2=O)C(=O)C=C(NC(=O)/C(C)=C\C=C\[C@H](C)[C@H](O)[C@@H](C)[C@@H](O)[C@@H](C)[C@H](OC(C)=O)[C@@H]1C)C4=O [RIFAMYCIN S]
- MIC90 [1]: 0.03 µM (≈ 0.0209 µg/mL)
- MIC90 (Escherichia coli [2]): > 100 µM
- pIC50 [4]: > 8.00
- MIC90 [5]: 0.4 µM (≈ 0.278 µg/mL)
- MIC90 (Escherichia coli [6]): 100 µM (≈ 69.6 µg/mL)
- MIC90 (Escherichia coli [7]): 0.78 µM (≈ 0.543 µg/mL)

SMILES: CO[C@H]1/C=C/O[C@@]2(C)Oc3c(c4c5c(nn(CCO)c5c3C)C(=C(/C=N/N3CCN(C)CC3)C4=O)NC(=O)/C(C)=C\C=C\[C@H](C)[C@H](O)[C@@H](C)[C@@H](O)[C@@H](C)[C@H](OC(C)=O)[C@@H]1C)C2=O
- MIC90 [1]: 3.9 µM (≈ 3.36 µg/mL)
- MIC90 (Escherichia coli [2]): > 100 µM
- logIC50 [3]: -0.856
- pIC50 [4]: 6.86
- MIC90 [5]: > 18.6 µM
- MIC90 (Escherichia coli [6]): > 100 µM
- MIC90 (Escherichia coli [7]): > 12.5 µM
